Results from paper PMC6385203, “Mutations in the palm domain disrupt modulation of acid-sensing ion channel 1a currents by neuropeptides” (Scientific Reports, 2019).
Entries after “also recorded” stand apart in the source; their conditions may differ. Ends that are not written are not given here.

Assays:
ASIC1a [1] = settings: cited from earlier work; for competition between functional effects: PcTx1 vs big dynorphin
From the text: (§1) Based on in silico docking, mutagenesis and functional validation, our study points to the side cavities of the central vestibule as the most probable binding sites for the peptide FRRFa. […] The 40-amino acid peptide toxin PcTx1 binds into the acidic pocket and to the subunit interface ...

ASIC1a F302C = assay: Modification of Cys mutant by MTSET; assay type: cell-based, human; settings: 1 mM MTSET 3 min, pH dependence of activation and SSD, n=4-6
Description: (§2) Figure S2. Modification of Cys mutants by MTSET. To determine whether exposure to MTSET modified specific Cys mutants, we applied pH protocols that detect shifts in the pH dependence of activation and of steady-state desen sitization (SSD) to ASIC1a-e xpressing oocytes, before and after a 3-min exposure to 1mM MTSET. a, illustration of the experimental protocol at the example of the E97C mutant. The acidic solution was applied once every minute, except during the incubation with MTSET. b, ratio of current amplitudes obtained at pH6.5 and pH5 from the conditioning pH7.4, as a measure of the pH dependence of activation, before (open bars) and after MTSET expo sure (red bars). c, ratio of the current amplitude at pH5 from the conditioning pH7.15 / the current amplitude at pH5 obtained from the conditioning pH7.4, as an indication of the pH dependence of SSD, n=4-6. *, p<0.05; **, p<0.01; ***, p<0.001; ****, p<0.0001; different between control and MTSET condition, […]
(§3) WT ASIC1a3,4. If a functional property is changed after MTSET incubation and its washout, it is concluded that the engineered Cys residue has been modified by MTSET. This analysis […]
(§4) (1 picture or pasted object on this page, not shown here)

ASIC1a E242C = assay: Modification of Cys mutant by MTSET; assay type: cell-based, human; settings: 1 mM MTSET 3 min, pH dependence of activation and SSD, n=4-6
Description: as §2, §3, §4

ASIC1a E97C = assay: Modification of Cys mutant by MTSET; assay type: cell-based, human; settings: 1 mM MTSET 3 min, pH dependence of activation and SSD, n=4-6
Description: as §2, §3, §4

ASIC1a S240C = assay: Modification of Cys mutant by MTSET; assay type: cell-based, human; settings: 1 mM MTSET 3 min, pH dependence of activation and SSD, n=4-6
Description: as §2, §3, §4

ASIC1a L280C = settings: L280C mutant; cited from earlier work
From the text: as §1

[2] = system: ENaC/degenerin ion channel family; settings: cited from earlier work
From the text: (§5) FaNaC-like channels have been described in mollusks and Hydra[8]–[10], but not in mammals. Mammals express FMRFa-related peptides that exert their pharmacological actions mainly by binding to G protein-coupled receptors. Mammalian FMRFa-like peptides contain more than four residues. Since they ...

[3] = system: ASIC1- and ASIC3-containing channels; settings: FMRFa and related peptides; cited from earlier work
From the text: as §5

FaNaC = settings: molluscan FaNaC; cited from earlier work
From the text: as §5

ASIC1a [4] = settings: cited from earlier work
Description: Currently it is not known where in the ASICs the RFa peptides bind. […] Our docking studies predicted possible b ... || ASIC1a function was measured by two-electrode voltage-clamp after recombinant expression in Xenopus oocytes. The channels were activated by a pH5 stimulation solution from a conditioning solution of pH7.4. […] We measured the rate of FRRFa unbinding, as the disappearance of the sustained current after a 50-s incubation with 50 μM FRRFa, as 0.025 ± 0.005 s^−1 (n = 8, Fig. 2b).

PcTx1: 40-amino acid peptide toxin PcTx1 (EDCIPKWKGCVNRHGDCCEGLECWKRRRSFEVCVPKTPKT; ends and bridges not checked; cysteine pairing not given here; UniProt P60514 1-40, looked up)
competition between functional effects (ASIC1a [1]): a competition between the functional effects of PcTx1 and the peptide big dynorphin

C[N+](C)(C)CCSS(C)(=O)=O [MTSET, [2-(trimethylamonium)ethyl] methanethiosulfonate]
modification by MTSET (ASIC1a F302C): evidence for modification by MTSET
modification by MTSET (ASIC1a E242C): evidence for modification by MTSET; also recorded: exposure to MTSET changes the properties of the mutants E97C, S240C and E242C
modification by MTSET (ASIC1a E97C): evidence for modification by MTSET; also recorded: exposure to MTSET changes the properties of the mutants E97C, S240C and E242C
modification by MTSET (ASIC1a S240C): evidence for modification by MTSET; also recorded: exposure to MTSET changes the properties of the mutants E97C, S240C and E242C
effect of MTSET modification on sustained current fraction (ASIC1a L280C): strongly increases the sustained current fraction

big dynorphin: a remotely related Arg-rich 32-amino acid peptide
competition between functional effects (ASIC1a [1]): a competition between the functional effects of PcTx1 and the peptide big dynorphin
modulation of ASIC1a (ASIC1a [1]): modulates ASIC1a in a similar way as RFa peptides do

N=C(N)NC(=O)c1nc(Cl)c(N)nc1N [amiloride]
inhibition of ENaC/degenerin channels [2]: inhibited by amiloride

Phe-Met-Arg-Phe-amide [FMRFa]
effects on ASIC desensitization, sustained current and SSD [3]: slow the desensitization time course of ASIC1- and ASIC3-containing channels and induce a sustained (non-desensitizing) current as well as an acidic shift in the SSD pH dependence of ASIC1a
channel activation (FaNaC): activated by the neuropeptide Phe-Met-Arg-Phe-amide (FMRFa)
requirement of pre-application (ASIC1a [4]): affect ASIC1a currents only when pre-applied with the conditioning solution at pH 7.4
